In ChEMBL document CHEMBL4699582, “Discovery of OATD-01, a First-in-Class Chitinase Inhibitor as Potential New Therapeutics for Idiopathic Pulmonary Fibrosis” (J Med Chem, 2020):

Key:
[1] = Clearance (0 to infinity) in Sprague-Dawley rat at 2 mg/kg, iv administered as single bolus dose by LC-MS/MS analysis; type: ADME, organism-based; settings: in vivo
[2] = Elimination half-life in Balb/c mouse at 3 mg/kg, iv administered as single bolus dose by LC-MS/MS analysis; type: ADME, organism-based; settings: in vivo, read-out: beta t1/2 (converted)
[3] = Tmax in Beagle dog at 10 mg/kg, po administered as single dose by LC-MS/MS analysis; type: ADME, organism-based, Canis lupus familiaris; settings: in vivo
[4] = AUC (0 to 24 hrs) in Sprague-Dawley rat at 2 mg/kg, iv administered as single bolus dose by LC-MS/MS analysis; type: ADME, organism-based; design: time < 24 hr, route intravenous, dose 2 mg/kg; settings: in vivo
Cytochrome P450 2C8 = Cytochrome P450 2C8 (Homo sapiens, UniProt P10632); experiment: Inhibition of CYP2C8 (unknown origin); type: ADME
Chain of Cytochrome P450 2C8 (P10632 whole entry): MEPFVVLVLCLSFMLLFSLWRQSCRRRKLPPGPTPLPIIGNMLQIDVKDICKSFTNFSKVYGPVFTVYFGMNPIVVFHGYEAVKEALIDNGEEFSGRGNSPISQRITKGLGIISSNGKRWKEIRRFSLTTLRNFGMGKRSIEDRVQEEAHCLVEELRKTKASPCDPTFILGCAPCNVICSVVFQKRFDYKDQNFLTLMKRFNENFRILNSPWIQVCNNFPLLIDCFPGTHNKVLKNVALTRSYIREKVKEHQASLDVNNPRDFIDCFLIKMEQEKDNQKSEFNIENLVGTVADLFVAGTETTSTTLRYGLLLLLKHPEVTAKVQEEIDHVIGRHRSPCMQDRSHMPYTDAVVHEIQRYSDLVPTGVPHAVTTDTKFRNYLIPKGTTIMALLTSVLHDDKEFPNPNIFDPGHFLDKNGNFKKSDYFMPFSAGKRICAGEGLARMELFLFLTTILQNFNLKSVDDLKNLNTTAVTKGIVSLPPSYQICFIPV

[5] = molecular target: Solute carrier family 22 member 1 (Homo sapiens, UniProt O15245); experiment: Inhibition of OCT1 (unknown origin) at 1 to 10 uM; settings: dose 1-10 µM
[6] = molecular target: Organic anion transporter 3 (Homo sapiens, UniProt Q8TCC7); experiment: Inhibition of OAT3 (unknown origin) at 1 to 10 uM; settings: dose 1-10 µM
Chain of Organic anion transporter 3 (Q8TCC7 whole entry): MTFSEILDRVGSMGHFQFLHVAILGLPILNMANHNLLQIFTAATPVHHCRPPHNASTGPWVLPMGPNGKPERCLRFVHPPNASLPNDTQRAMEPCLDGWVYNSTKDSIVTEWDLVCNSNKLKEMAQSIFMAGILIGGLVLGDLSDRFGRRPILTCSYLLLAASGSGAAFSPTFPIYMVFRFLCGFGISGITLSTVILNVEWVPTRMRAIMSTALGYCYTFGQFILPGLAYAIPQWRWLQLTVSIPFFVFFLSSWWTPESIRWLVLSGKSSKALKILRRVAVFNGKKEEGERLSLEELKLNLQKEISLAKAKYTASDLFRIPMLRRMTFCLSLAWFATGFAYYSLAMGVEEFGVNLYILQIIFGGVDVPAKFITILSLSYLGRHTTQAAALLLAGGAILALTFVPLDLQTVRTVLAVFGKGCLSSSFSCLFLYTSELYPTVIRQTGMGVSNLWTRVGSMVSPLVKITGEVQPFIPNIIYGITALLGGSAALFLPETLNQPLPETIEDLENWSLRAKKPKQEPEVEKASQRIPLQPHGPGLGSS

[7] = Elimination half-life in Beagle dog at 10 mg/kg, po administered as single dose by LC-MS/MS analysis; type: ADME, organism-based, Canis lupus familiaris; settings: in vivo, read-out: beta t1/2 (converted)
Cytochrome P450 2C19 = Cytochrome P450 2C19 (Homo sapiens, UniProt P33261); experiment: Inhibition of CYP2C19 (unknown origin); type: ADME
Chain of Cytochrome P450 2C19 (P33261 whole entry): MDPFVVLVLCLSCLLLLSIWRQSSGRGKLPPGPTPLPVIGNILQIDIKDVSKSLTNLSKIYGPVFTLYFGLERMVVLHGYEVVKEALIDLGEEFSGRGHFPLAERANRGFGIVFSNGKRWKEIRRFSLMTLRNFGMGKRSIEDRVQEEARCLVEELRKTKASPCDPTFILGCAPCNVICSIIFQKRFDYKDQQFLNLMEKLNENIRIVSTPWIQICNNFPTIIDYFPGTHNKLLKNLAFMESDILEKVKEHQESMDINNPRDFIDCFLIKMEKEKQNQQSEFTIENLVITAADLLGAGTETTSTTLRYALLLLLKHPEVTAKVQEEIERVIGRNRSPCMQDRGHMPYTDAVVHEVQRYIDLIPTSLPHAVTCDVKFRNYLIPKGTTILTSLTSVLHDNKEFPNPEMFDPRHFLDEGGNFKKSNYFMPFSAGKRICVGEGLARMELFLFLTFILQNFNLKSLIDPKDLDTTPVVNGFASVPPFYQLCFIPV

[8] = Clearance (0 to 24 hrs) in Balb/c mouse at 3 mg/kg, iv administered as single bolus dose by LC-MS/MS analysis; type: ADME, organism-based; settings: in vivo
[9] = molecular target: ATP-binding cassette sub-family C member 3 (Homo sapiens, UniProt O15438); experiment: Inhibition of MRP3 (unknown origin) at 1 to 10 uM; settings: dose 1-10 µM
Chain of ATP-binding cassette sub-family C member 3 (O15438 whole entry): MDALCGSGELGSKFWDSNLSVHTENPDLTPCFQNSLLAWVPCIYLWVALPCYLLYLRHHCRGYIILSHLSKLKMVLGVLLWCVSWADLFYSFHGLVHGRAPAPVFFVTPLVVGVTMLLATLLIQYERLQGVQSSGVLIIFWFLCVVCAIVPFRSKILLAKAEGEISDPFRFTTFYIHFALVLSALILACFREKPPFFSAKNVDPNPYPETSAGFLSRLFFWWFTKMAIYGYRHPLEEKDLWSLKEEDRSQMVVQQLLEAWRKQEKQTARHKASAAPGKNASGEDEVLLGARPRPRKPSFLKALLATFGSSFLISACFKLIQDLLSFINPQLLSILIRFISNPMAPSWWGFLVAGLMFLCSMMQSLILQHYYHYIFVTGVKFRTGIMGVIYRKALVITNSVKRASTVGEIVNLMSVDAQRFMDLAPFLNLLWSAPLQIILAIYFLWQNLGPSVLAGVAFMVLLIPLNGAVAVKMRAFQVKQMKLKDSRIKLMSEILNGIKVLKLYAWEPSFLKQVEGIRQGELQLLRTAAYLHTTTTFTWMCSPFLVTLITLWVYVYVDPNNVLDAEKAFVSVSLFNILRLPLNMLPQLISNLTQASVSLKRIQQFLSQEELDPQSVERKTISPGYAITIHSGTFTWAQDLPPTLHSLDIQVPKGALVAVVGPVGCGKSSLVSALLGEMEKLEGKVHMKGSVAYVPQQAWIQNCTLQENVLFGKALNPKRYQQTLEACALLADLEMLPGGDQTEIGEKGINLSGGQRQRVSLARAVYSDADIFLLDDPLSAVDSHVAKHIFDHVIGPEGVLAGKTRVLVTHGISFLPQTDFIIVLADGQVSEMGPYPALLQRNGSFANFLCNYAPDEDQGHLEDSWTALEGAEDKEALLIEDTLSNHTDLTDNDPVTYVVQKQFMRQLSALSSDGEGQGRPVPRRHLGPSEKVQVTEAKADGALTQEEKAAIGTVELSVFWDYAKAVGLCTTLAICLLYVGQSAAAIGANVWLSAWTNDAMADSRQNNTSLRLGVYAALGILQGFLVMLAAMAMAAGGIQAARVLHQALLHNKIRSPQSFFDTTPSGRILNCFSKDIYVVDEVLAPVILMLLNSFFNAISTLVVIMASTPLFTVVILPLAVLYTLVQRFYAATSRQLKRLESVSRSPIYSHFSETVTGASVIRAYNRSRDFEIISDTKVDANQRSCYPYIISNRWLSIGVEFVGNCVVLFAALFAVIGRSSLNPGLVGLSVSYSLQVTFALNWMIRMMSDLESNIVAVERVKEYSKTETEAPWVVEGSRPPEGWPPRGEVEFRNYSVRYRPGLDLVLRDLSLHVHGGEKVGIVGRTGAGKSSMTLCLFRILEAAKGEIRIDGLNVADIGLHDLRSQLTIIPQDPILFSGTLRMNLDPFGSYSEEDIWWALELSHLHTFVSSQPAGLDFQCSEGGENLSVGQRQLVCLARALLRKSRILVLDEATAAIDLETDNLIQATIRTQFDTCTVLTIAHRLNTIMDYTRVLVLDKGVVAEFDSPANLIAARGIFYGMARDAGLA

[10] = Clearance (0 to 24 hrs) in Sprague-Dawley rat at 2 mg/kg, iv administered as single bolus dose by LC-MS/MS analysis; type: ADME, organism-based; settings: in vivo
[11] = Volume of distribution at steady state in Balb/c mouse at 3 mg/kg, iv administered as single bolus dose measured upto 24 hrs by LC-MS/MS analysis; type: ADME, organism-based; settings: in vivo, read-out: Vdss
[12] = Dose normalized AUC (0 to 24 hrs) in Balb/c mouse at 3 mg/kg, iv administered as single bolus dose by LC-MS/MS analysis; type: ADME, organism-based; settings: in vivo
[13] = AUC (0 to 24 hrs) in Balb/c mouse at 3 mg/kg, iv administered as single bolus dose by LC-MS/MS analysis; type: ADME, organism-based; design: time < 24 hr, route intravenous, dose 3 mg/kg; settings: in vivo
[14] = molecular target: Solute carrier organic anion transporter family member 1B3 (Homo sapiens, UniProt Q9NPD5); experiment: Inhibition of OATP1B3 (unknown origin) at 1 to 10 uM; settings: dose 1-10 µM
Chain of Solute carrier organic anion transporter family member 1B3 (Q9NPD5 whole entry): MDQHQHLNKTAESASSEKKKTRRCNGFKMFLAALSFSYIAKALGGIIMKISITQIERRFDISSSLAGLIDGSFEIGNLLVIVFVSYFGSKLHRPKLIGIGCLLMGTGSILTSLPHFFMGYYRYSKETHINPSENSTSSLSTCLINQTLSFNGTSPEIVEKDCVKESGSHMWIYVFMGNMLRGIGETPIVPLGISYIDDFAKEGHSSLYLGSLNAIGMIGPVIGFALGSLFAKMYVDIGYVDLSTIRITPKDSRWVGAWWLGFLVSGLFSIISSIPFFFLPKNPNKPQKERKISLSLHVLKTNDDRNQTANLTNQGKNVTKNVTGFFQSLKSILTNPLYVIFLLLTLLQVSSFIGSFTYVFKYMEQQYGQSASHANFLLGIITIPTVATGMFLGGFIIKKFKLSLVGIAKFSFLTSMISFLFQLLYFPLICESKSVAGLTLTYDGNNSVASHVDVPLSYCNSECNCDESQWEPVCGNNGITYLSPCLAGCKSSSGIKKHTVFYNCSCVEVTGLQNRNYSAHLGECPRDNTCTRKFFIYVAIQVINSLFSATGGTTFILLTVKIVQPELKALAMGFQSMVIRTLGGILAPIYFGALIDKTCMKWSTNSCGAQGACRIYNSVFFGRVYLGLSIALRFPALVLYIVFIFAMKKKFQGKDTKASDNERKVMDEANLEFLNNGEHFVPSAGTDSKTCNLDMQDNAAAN

[15] = Drug uptake in C57BL/6N mouse lung at 30 mg/kg, po qd administered via gavage measured 24 hrs post dose; type: ADME, organism-based; settings: in vivo
[16] = Drug uptake in C57BL/6N mouse plasma at 30 mg/kg, po bid administered via gavage measured 24 hrs post dose; type: ADME, organism-based; settings: in vivo
[17] = AUC (0 to 24 hrs) in Balb/c mouse at 10 mg/kg, po administered as single dose by LC-MS/MS analysis; type: ADME, organism-based; design: time < 24 hr, route oral, dose 10 mg/kg; settings: in vivo
Cytochrome P450 2C9 = Cytochrome P450 2C9 (Homo sapiens, UniProt P11712); experiment: Inhibition of CYP2C9 (unknown origin); type: ADME
Chain of Cytochrome P450 2C9 (P11712 whole entry): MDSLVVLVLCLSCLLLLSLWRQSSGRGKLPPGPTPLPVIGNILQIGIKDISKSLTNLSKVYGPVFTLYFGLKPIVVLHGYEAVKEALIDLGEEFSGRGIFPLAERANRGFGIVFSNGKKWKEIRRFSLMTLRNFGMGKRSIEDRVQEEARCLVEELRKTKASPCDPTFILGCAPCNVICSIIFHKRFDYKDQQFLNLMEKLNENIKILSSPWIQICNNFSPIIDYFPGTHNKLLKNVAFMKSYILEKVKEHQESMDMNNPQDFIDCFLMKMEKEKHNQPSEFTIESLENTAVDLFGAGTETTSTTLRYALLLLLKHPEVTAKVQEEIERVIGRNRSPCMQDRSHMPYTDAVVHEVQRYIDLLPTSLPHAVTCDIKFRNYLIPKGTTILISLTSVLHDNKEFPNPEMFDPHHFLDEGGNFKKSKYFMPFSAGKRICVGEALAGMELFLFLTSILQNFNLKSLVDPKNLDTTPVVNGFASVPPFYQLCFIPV

[18] = In-vivo inhibition of CHIT1 in C57BL/6N mouse assessed as decrease in chitinolytic activity in plasma at 30 mg/kg, po qd administered via gavage measured up to 12 hrs relative to control; type: functional; settings: time hrs <=12
[19] = Tmax in Sprague-Dawley rat at 6 mg/kg, po administered as single dose by LC-MS/MS analysis; type: ADME, organism-based; settings: in vivo
[20] = Volume of distribution at steady state in Beagle dog at 3 mg/kg, iv administered as single bolus dose measured upto 24 hrs by LC-MS/MS analysis; type: ADME, organism-based, Canis lupus familiaris; settings: in vivo, read-out: Vdss
[21] = Cmax in Beagle dog at 3 mg/kg, iv administered as single bolus dose by LC-MS/MS analysis; type: ADME, organism-based, Canis lupus familiaris; design: route intravenous, dose 3 mg/kg; settings: in vivo
[22] = Elimination half-life in Beagle dog at 3 mg/kg, iv administered as single bolus dose by LC-MS/MS analysis; type: ADME, organism-based, Canis lupus familiaris; settings: in vivo, read-out: beta t1/2 (converted)
[23] = Elimination half-life in Balb/c mouse at 10 mg/kg, po administered as single dose by LC-MS/MS analysis; type: ADME, organism-based; settings: in vivo, read-out: beta t1/2 (converted)
[24] = molecular target: Hepatic sodium/bile acid cotransporter (Homo sapiens, UniProt Q14973); experiment: Inhibition of NTCP (unknown origin) at 1 to 10 uM; settings: dose 1-10 µM
Chain of Hepatic sodium/bile acid cotransporter (Q14973 whole entry): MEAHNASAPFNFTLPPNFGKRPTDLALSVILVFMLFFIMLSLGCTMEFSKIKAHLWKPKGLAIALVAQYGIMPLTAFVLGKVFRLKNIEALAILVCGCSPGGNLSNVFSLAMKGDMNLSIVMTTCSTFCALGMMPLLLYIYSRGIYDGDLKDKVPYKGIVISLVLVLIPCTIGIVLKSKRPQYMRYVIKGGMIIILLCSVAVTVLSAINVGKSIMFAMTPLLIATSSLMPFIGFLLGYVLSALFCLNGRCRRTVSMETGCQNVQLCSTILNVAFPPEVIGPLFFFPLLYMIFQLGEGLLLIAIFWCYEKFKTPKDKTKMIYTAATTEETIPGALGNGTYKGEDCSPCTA

[25] = Dose normalized Cmax in Beagle dog at 3 mg/kg, iv administered as single bolus dose by LC-MS/MS analysis; type: ADME, organism-based, Canis lupus familiaris; settings: in vivo
[26] = Oral bioavailability in Sprague-Dawley rat at 6 mg/kg, administered as single dose by LC-MS/MS analysis; type: ADME, organism-based; settings: in vivo

For `C[C@H]1CN(C2CCN(c3nc(N)n[nH]3)CC2)[C@@H](Cc2ccc(Cl)cc2)CO1` [5-(4-((2S,5S)-5-(4-CHLOROBENZYL)-2-METHYLMORPHOLINO)PIPERIDIN-1-YL)-1H-1,2,4-TRIAZOL-3-AMINE], the clearance [1] was 5.67 mL/min/kg, the half-life [2] was 2.09 h and the Tmax [3] was 0.5 h. For the same molecule, the AUC(0-t) at 24 h [4] was 5560 ng·h/mL, the “inhibition (INH)” value (Cytochrome P450 2C8) was “Not Active” and the “inhibition (INH)” value [5] was “Not Active”. The “inhibition (INH)” value [6] was “Not Active”, the half-life [7] was 22.9 h and the “inhibition (INH)” value (Cytochrome P450 2C19) was “Not Active”. For the same molecule, the clearance [8] was 5.83 mL/min/kg, the “inhibition (INH)” value [9] was “Not Active” and the clearance [10] was 5.67 mL/min/kg. It also gave a Vd [11] of 1.01 L/kg, an AUC/dose [12] of 2.87 kg·mg·h/L/mg and an AUC(0-t) at 24 h [13] of 8600 ng·h/mL. For the same molecule, the “inhibition (INH)” value [14] was “Not Active”, the Drug uptake [15] was “Active” and the Drug uptake [16] was “Active”. For the same molecule, the AUC(0-t) at 24 h [17] was 22200 ng·h/mL, the “inhibition (INH)” value (Cytochrome P450 2C9) was “Not Active” and the inhibition in vivo at 30 mg/kg [18] was 70%. For the same molecule, the Tmax [19] was 2 h, the Vd [20] was 0.96 L/kg and the Cmax [21] was 2470 ng/mL. The half-life [22] was 21.9 h, the half-life [23] was 1.88 h and the “inhibition (INH)” value [24] was “Not Active”. The Cmax/dose [25] was 0.82 kg.mg/L.mL and the bioavailability [26] was 107%.
